The values that follow come from publication PMC9326216, “Treatment of Cardiovascular Dysfunction with PDE3-Inhibitors in Moderate and Severe Hypothermia—Effects on Cellular Elimination of Cyclic Adenosine Monophosphate and Cyclic Guanosine Monophosphate” (Frontiers in Physiology, 2022).

Where two headings read alike, the source gives them in different places.

The target in this data set is T1, ABCC4 (Homo sapiens, UniProt O15439).
T1 sequence (O15439 1-1325): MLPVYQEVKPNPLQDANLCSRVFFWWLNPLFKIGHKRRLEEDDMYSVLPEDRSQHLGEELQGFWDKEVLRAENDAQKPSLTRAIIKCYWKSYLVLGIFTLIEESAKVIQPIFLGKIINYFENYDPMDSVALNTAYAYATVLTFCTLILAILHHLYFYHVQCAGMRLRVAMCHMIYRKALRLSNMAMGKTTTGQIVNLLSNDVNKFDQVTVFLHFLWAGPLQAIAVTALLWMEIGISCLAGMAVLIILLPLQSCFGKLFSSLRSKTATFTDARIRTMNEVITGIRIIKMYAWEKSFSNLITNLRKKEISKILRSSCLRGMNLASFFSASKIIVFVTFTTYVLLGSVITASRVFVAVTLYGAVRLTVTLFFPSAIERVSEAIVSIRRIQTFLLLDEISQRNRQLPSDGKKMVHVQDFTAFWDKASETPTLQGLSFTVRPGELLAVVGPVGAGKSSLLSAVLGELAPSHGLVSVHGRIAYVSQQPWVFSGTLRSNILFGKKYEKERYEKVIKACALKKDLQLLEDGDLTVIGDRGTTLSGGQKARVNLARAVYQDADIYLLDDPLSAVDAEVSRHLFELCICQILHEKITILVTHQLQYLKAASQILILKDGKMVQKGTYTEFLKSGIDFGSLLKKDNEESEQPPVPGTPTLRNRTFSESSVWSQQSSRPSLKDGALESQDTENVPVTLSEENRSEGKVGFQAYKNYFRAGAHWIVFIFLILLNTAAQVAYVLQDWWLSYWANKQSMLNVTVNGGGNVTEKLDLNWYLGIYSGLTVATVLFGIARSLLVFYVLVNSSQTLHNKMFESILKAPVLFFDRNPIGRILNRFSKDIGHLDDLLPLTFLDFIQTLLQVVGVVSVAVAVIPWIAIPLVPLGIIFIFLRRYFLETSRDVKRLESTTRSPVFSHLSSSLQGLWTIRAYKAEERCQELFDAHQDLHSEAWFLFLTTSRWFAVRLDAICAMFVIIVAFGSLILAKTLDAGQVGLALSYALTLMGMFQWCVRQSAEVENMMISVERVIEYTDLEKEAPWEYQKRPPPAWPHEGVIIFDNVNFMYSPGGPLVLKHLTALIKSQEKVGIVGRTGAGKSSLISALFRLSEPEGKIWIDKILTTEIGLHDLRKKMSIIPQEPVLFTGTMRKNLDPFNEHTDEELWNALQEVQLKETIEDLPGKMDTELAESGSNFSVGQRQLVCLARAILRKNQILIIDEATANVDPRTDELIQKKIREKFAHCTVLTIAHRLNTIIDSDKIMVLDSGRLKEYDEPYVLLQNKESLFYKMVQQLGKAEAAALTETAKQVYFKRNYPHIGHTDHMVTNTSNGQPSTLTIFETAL
The experiment in a line: biochemical. The format is biochemical. On the procedure:
Freshly collected EDTA blood from healthy donors (n = 35) was prepared at 0°C–4°C, starting by separating the erythrocytes from plasma by centrifugation at 2,300 g for approximately 15 min. […] Lysis followed thereafter, with ten volumes of 5 mM Tris-HCl, 0.5 mM EGTA, 4 mM KCl (pH 8.1) and washed by repeated centrifugation at 20,000 g for 20 min and resuspension in the same buffer. Vesiculation was initiated by adding 39 volumes of a […] buffer ([…] Tris-HCl, pH 8.2) to one volume of cell suspension and completed by forcing the solution five times through a 27-gauge syringe needle to promote homogenization of the membranes. […] The resulting IOVs, which still contained ABC-transporters in the membrane, enabled us to control the intracellular environment, in this case the surrounding medium, and collect the cyclic nucleotides within. […] Radioactive labeled (^3H)-cAMP or (^3H)-cGMP (Perkin Elmer, Boston, MA, United States) were added to the incubation solutions in the concentration 20 and 2 μM, respectively, depending on the transporter examined, together with the appointed study drug in concentrations up to 1 mM. […] Next step was to collect the IOVs, which was done by filtration through a nitrocellulose membrane (Bio-Rad Laboratories, Feldkirchen, Germany), and then drying it. The resulting collection of radioactivity upon the filter, was later quantified by using a Packard TopCount NXT (Packard, Downers Grove, IL, United states) after adding scintillation fluid (MicroScint-O, PerkinElmer, Groningen, Netherlands).
IC50 and Ki values were calculated for each of the drugs, both for their ability to inhibit cAMP- and cGMP- efflux, as well as PDE3 and PDE5 activity. […] Inhibition curves were created accordingly, both with and without adjustment for normothermic control.

For the molecule `Nc1cc(-c2ccncc2)c[nH]c1=O` [Amrinone], the IC50 reads like this: (28°C, cAMP-efflux, inside-out vesicles, 20 µM 3H-cAMP, 60 min, read-out: ABCC4 IC50) 8.42 ± 4.81 µM; (32°C, cAMP-efflux, inside-out vesicles, 20 µM 3H-cAMP, 60 min, read-out: ABCC4 IC50) 5.49 ± 2.25 µM; (34°C, cAMP-efflux, inside-out vesicles, 20 µM 3H-cAMP, 60 min, read-out: ABCC4 IC50) 1.21 ± 0.1 µM; (37°C, cAMP-efflux, inside-out vesicles, 20 µM 3H-cAMP, 60 min, read-out: ABCC4 IC50) 4.65 ± 3.21 µM. For the same molecule, the Ki turned out to be 5.11 ± 2.91 µM (28°C, cAMP-efflux, inside-out vesicles, read-out: ABCC4 Ki); 3.33 µM (32°C, cAMP-efflux, inside-out vesicles, read-out: ABCC4 Ki); 0.73 ± 0.058 µM (34°C, cAMP-efflux, inside-out vesicles, read-out: ABCC4 Ki); 2.82 µM (37°C, cAMP-efflux, inside-out vesicles, read-out: ABCC4 Ki).
In the case of `C[C@@H]1CC(=O)NN=C1c1ccc(NN=C(C#N)C#N)cc1` [Levosimendan], the “Drug selectivity (IC50)/(IC50): (cAMP-efflux)/(PDE3) inhibition” value reads like this: (28°C) 270.65; (28°C, listed as L) 270.7; (32°C) 85.98; (34°C) 43.45; (37°C) 28.76. The IC50 was 27.2 ± 21.3 µM (28°C, Table 3, read-out: ABCC5 IC50 (Table 3)); 16.5 ± 5.56 µM (32°C, Table 3, read-out: ABCC5 IC50 (Table 3)); 12.7 ± 6.6 µM (34°C, Table 3, read-out: ABCC5 IC50 (Table 3)); 9.41 ± 5.91 µM (37°C, Table 3, read-out: ABCC5 IC50 (Table 3)). For the same molecule, the Ki runs as follows: (28°C, Table 3, read-out: ABCC5 Ki (Table 3)) 16.5 ± 12.9 µM; (32°C, Table 3, read-out: ABCC5 Ki (Table 3)) 10 ± 3.37 µM; (34°C, Table 3, read-out: ABCC5 Ki (Table 3)) 7.73 ± 4 µM; (37°C, Table 3, read-out: ABCC5 Ki (Table 3)) 5.71 ± 3.58 µM.
